From article PMC8434099, “Selected Drug-Likeness Properties of 2-Arylidene-indan-1,3-dione Derivatives—Chemical Compounds with Potential Anti-Cancer Activity” (Molecules, 2021)

Experiments:
[1] = Chromatographic (RP-HPLC) examination of lipophilicity, Snyder–Soczewiński model; format: physicochemical; details: for logkw (ACN) / logkw (MeOH): RP-HPLC, extrapolated Snyder–Soczewiński curve; for logkw (ACN) / −S (ACN): acetonitrile as organic modifier; for logkw (MeOH) / −S (MeOH): methanol as organic modifier; for Δ = |logkw-MeOH − logkw-ACN|: difference of logkw between modifiers; for −S (ACN) / −S (MeOH): slope of the Snyder–Soczewiński regression curve
Description: The chromatographic analysis was carried out on a Shimadzu device equipped with a pump system (LC-20AD model), a detector with a diode bench (SPD-M20A model), a degasser (DGU-20A 5R model), a chromatographic oven (CTO-10AS VP), autosampler (SIL-20AC HT model), and chromatographic column (LiChrospher 100 RP-18, 5 μm, Poznań, Poland). Analyses were performed, leading to a multicratic elution. The mobile phase was methanol (J. T. Backer, Phillipsburg, NJ, USA) or acetonitrile (J. T. Backer) and water (Hydrolab, HPL5UV model, Straszyn, Poland) in different volume ratios. In individual analyses, the concentration of the organic modifier expressed as a […] was 0.75–0.95 with a constant step of 0.05. The test compounds were dissolved in methanol. The injection volume was 10 µL. The flow was set at 1 mL/min, the temperature of the chromatography oven at 25 °C, and the detector temperature at 2 °C higher than the ambient temperature. Compounds were detected in the range 190–800 nm. All samples were tested in duplicate at least. Column dead time (tM) was determined using uracil (Sigma Aldrich). The retention coefficient was calculated using the following formula:(1) k=tR/tM−1, where tR is the retention time of the test compound in a given eluent composition, and tM is the chromatographic column dead time.
The value of lipophilicity was determined using the linear dependence of the decimal logarithm from the retention coefficient (logk) and the concentration of the organic modifier in the mobile phase, which was expressed as a volume fraction. For this purpose, the following formula was used:(2) logk=logkw+Sφ, where logk is the decimal logarithm of the retention coefficient, logkw is the value obtained by extrapolating the curve, S is the slope of the regression curve, and φ is the volume fraction of the organic modifier.
The coefficient of determination (R^2) was also calculated for the prepared curves.

[2] = test system: Human Serum Albumin (HSA); experiment: Binding to albumin, fluorescence quenching; details: calculated from association constant KS for albumin concentration in blood of 44 mg/mL (660 μM); for fraction unbound: human, human serum albumin solution (10 µM HSA), pH 7.4, read-out: free fraction (albumin)
Description: Fluorescence lifetime and fluorescence intensity of HSA solutions were measured using the time-resolved Fluorescence Spectrophotometer Life Spec II (Edinburgh Instruments Ltd., Livingston, UK) with the sub-nanosecond pulsed EPLED diode emitting a light of the wavelength 280 nm. The spectrometer was equipped with electronically cooled photomultiplier Hamamatsu R928 connected with TCC900 PC Card, which incorporates all the electronic modules required for Time-Correlated Single Photon Counting (TCSPC). The fluorescence decays were recorded at an emission wavelength of 350 nm. The data were fitted with an exponential decay to obtain total fluorescence intensity and lifetime. Measurements were performed at room temperature using quartz cuvettes 3.5 × 10 mm. The exposure time of the sample was 30 s. A spectrophotometer Jasco V-550 was used for absorption measurements.
Human Serum Albumin (HSA, 97%) was purchased from Sigma Aldrich. For the fluorescence quenching measurements, the 10 µM PBS solution of HSA at pH 7.4 was prepared, and 10 mM stock solutions of studied compounds were prepared in DMSO (dimethylsulfoxide). The final concentration of studied compounds in HSA solution varied between 0 and 70 µM.
Fluorescence quenching of albumin can be described by the Stern–Volmer Equation [21]: (3) F0/F=KSV[Q]+1, where F0 and F are the fluorescence intensities in the absence and presence of quencher, respectively, [Q] is the concentration of quencher, and KSV is the Stern–Volmer quenching constant.
Due to the fact that a quencher can absorb light at the excitation and/or emission wavelengths, the measured intensity should be corrected according to the Formula [22]:(4) Fobserved=Fcorrect×10^−Aex×dex/2−Aem×dem/2, where Fobserved is the measured fluorescence, Fcorrect is the fluorescence that would be measured in the absence of absorption effect, Aex and Aem are the absorbances of ligand at the excitation (280 nm) and emission wavelength (350 nm), respectively, and dex and dem are the cuvette pathlength in the excitation and emission direction (0.35 cm and 1 cm, respectively).
As the fluorophore can be quenched by collisions or by complex formation with the quencher, there are two types of quenching: dynamic and static. They can be distinguished by lifetime measurements. […] If the quenching is known to be dynamic, then:(5) F0/F=KD[Q]+1=τ0/τ, where τ0 and τ are the lifetimes in the absence and presence of quencher, and KD is the dynamic quenching constant.
In many cases, both static and dynamic quenching occurs for the same fluorophore, then modified Stern–Volmer equation has the form:(6) F0/F=(KD[Q]+1)(KS[Q]+1)=τ0/τ(KS[Q]+1),
The dynamic portion of the quenching (KD[Q] + 1), according to Equation (5), can be determined by lifetime measurements. The portion (KS[Q] + 1) relates to static quenching, and KS is the association constant, which is given by:(7) KS=[F−Q]/[F][Q], where [F−Q] is the concentration of complex fluorophore–quencher, [F] is the concentration of uncomplexed fluorophore (concentration of free HSA molecules), and [Q] is the concentration of quencher.
In this study, the tested compounds were added to the HSA solution, and the fluorescence intensity and lifetime at 350 nm were measured for varying concentrations of ligands. On the basis of absorbance measurements of ligands at 280 nm and 350 nm, the correct fluorescence intensities were estimated using Equation (4). Then, the Stern–Volmer constants, dynamic quenching constants, and association constants of studied compounds were determined using Equations (3), (5) and (6), respectively.
Knowing the value of association constant KS, it is possible to determine the theoretical percentage of the bound and free fraction of the drug for the physiological concentration of albumin. […]

SMILES	logkw (ACN) [1]	logkw (MeOH) [1]	Compliance with the lipophilicity assumption of the Lipiński’s rule (logkw below 5) ([1]; analyses using methanol as a modifier)	Δ = |logkw-MeOH − logkw-ACN| [1]	−S (ACN) [1]	−S (MeOH) [1]	bound fraction (albumin) [2] [%]	fraction unbound [2]
O=C1C(=Cc2ccc(N(c3ccccc3)c3ccccc3)cc2)C(=O)c2ccccc21 [Compound 3I, 2-{[4-(diphenylamino)phenyl]methylidene}-1H-indene-1,3(2H)-dione]	3.8489	5.3524	do not meet this basic assumption of the Lipiński’s rule	1.5035	3.7589	5.0483	83	0.17
O=C1C(=CC2=Cc3cc(O)ccc3OC2)C(=O)c2ccccc21 [Compound 3K, 2-[(6-hydroxy-2H-1-benzopyran-3-yl)methylidene]-1H-indene-1,3(2H)-dione]	1.7720	2.9717	–	1.1997	2.1213	3.0667	92	0.08
O=C1C(=Cc2ccoc2)C(=O)c2ccccc21 [Compound 3H, 2-[(furan-3-yl)methylidene]-1H-indene-1,3(2H)-dione]	1.9162	2.5521	–	0.6359	2.2011	2.6243	95	0.05
COc1ccc(C=C2C(=O)c3ccccc3C2=O)cc1O [Compound 3E, 2-[(3-hydroxy-4-methoxyphenyl)methylidene]-1H-indene-1,3(2H)-dione]	1.5356	2.2321	–	0.6965	1.9201	2.4114	97	0.03
O=C1C(=Cc2ccc(O)cc2)C(=O)c2ccccc21 [Compound 3J, 2-[(4-hydroxyphenyl)methylidene]-1H-indene-1,3(2H)-dione]	–	2.3814	–	1.3880	–	2.5802	96	0.04
CN(C)c1ccc(C=C2C(=O)c3ccccc3C2=O)cc1 [Compound 3B, 2-{[4-(dimethylamino)phenyl]methylidene}-1H-indene-1,3(2H)-dione]	2.2394	3.2790	–	1.0396	2.3613	3.1597	94	0.06
COc1ccc(C=C2C(=O)c3ccccc3C2=O)cc1 [Compound 3C, 2-(4-methoxybenzylidene)-1H-indene-1,3(2H)-dione]	2.3042	3.3554	–	1.0512	2.4879	3.2782	94	0.06
O=C1C(=Cc2ccccc2)C(=O)c2ccccc21 [Compound 3A, 2-benzylidene-1H-indene-1,3(2H)-dione]	2.2433	3.3210	–	1.0777	2.4449	3.3278	97	0.03
